Experimental data from patent US8183394B2, “Protease inhibitor precursor synthesis” (priority 2005, dated 2012).

How the values were obtained:
Assay type in all cases: cell-based
[1] = system: wild type laboratory HIV strain (WT IIIB-2-001); experiment: microbe, parasite or virus in culture; settings: Human immunodeficiency virus 1, 72 h, MT4-LTR-EGFP cells, three days incubation, GFP signal
Description: (§1) The compounds were tested in a cellular assay using the MT4-LTR-EGFP cells for anti-viral activity.
The cellular assay was performed according to the following procedure. HIV- or mock-infected MT4-LTR-EGFP cells were incubated for three days in the presence of various concentrations of the compounds mentioned above. Upon infection, the viral tat protein activates the GFP reporter. At the end of the incubation period, the GFP signal was measured. […] The inhibitory activity of the compound was monitored on the virus-infected cells and EC50 values were calculated. These values represent the amount of the compound required to protect 50% of the cells from virus infection. The data presented in table 1 contain the pEC50 values, being the negative logarithm of the EC50-values.

[2] = system: HIV mutant strain Mutant 1; experiment: cellular assay using MT4-LTR-EGFP cells for anti-viral activity, mutant 1; settings: Human immunodeficiency virus 1, 72 h, read-out: pEC50 Mutant 1 (converted)
Description: as §1
(§2) The cellular assay was performed according to the following procedure. HIV- or mock-infected MT4-LTR-EGFP cells were incubated for three days in the presence of various concentrations of the compounds mentioned above. Upon infection, the viral tat protein activates the GFP reporter. At the end of the incubation period, the GFP signal was measured. In the virus control samples (in the absence of any inhibitor) the maximal fluorescent signal was obtained. The inhibitory activity of the compound was monitored on the virus-infected cells and EC50 values were calculated. These values represent the amount of the compound required to protect 50% of the cells from virus infection. The data presented in table 1 contain the pEC50 values, being the negative logarithm of the EC50-values.

[3] = system: HIV mutant strain Mutant 2; experiment: cellular assay using MT4-LTR-EGFP cells for anti-viral activity, mutant 2; settings: Human immunodeficiency virus 1, 72 h, read-out: pEC50 Mutant 2 (converted)
Description: as §1, §2

[4] = system: HIV mutant strain Mutant 3; experiment: cellular assay using MT4-LTR-EGFP cells for anti-viral activity, mutant 3; settings: Human immunodeficiency virus 1, 72 h, read-out: pEC50 Mutant 3 (converted)
Description: as §1, §2

[5] = system: HIV mutant strain Mutant 4; experiment: cellular assay using MT4-LTR-EGFP cells for anti-viral activity, mutant 4; settings: Human immunodeficiency virus 1, 72 h, read-out: pEC50 Mutant 4 (converted)
Description: as §1, §2

CC(C)CN(C[C@@H](O)[C@H](Cc1ccccc1)NC(=O)O[C@H]1CO[C@H]2OC[C@H](OCc3ccccc3)[C@H]21)S(=O)(=O)c1ccc(N)cc1 [Compound 13, {3-[(4-amino-benzenesulfonyl)-isobutyl-amino]-1-benzyl-2-hydroxy-propyl}-carbamic acid 4-benzyloxy-hexahydro-furo[2,3-b]furan-3-yl ester]
EC50 [1]: 1.58 nM | EC50 [2]: 10 nM | EC50 [3]: 316 nM | EC50 [4]: 126 nM | EC50 [5]: 2000 nM

CC(C)CN(C[C@@H](O)[C@H](Cc1ccccc1)NC(=O)O[C@H]1CO[C@H]2OCC[C@H]21)S(=O)(=O)c1ccc(N)cc1 [TMC 114, (3R,3aS,6aR)-hexahydrofuro[2,3-b]furan-3-yl N-[(1S,2R)-1-benzyl-2-hydroxy-3-(N1-isobutylsulfanilamido)propyl]carbamate, reference compound]
EC50 [2]: 8.13 nM | EC50 [3]: 794 nM | EC50 [5]: 3720 nM
